Experimental findings from EP2929883A1, “Pyrazole derivatives as dihydroorotate dehydrogenase (DHODH) inhibitors” (INSTITUT PASTEUR, priority 2014, dated 2015) are described below.

In one assay the test system is Jurkat cells. The assay is described as follows: inhibition of the proliferation of Jurkat cells (CellTiter-Glo). The class given is cell-based. The following applies: Homo sapiens, 72 h, read-out: IC50, Jurkat cells proliferation. (ATP-based viability assays read luminescence as a measure of living cells.)
The subject of another assay is measles virus. The assay is described as follows: microbe, parasite or virus in culture. The following applies: Measles morbillivirus.
The target of a further assay is T1, recombinant human DHODH (Homo sapiens, UniProt Q02127).
T1 construct: N-terminally truncated (first 29 amino acids) human DHODH; made in house; host or cells: E. coli BL21(DE3)/pDIA17
T1 sequence (Q02127 29-395): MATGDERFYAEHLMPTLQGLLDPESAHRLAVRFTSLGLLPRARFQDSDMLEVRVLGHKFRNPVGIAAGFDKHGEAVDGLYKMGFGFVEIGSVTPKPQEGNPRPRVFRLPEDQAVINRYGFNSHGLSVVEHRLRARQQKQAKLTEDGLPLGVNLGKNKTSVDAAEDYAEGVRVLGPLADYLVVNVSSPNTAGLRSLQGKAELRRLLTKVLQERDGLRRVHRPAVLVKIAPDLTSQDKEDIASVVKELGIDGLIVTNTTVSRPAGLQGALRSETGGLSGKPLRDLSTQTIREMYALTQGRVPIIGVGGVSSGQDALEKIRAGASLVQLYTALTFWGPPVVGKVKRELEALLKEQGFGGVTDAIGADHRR
Kind of assay: recombinant DHODH enzymatic assay (DCIP reduction). The class given is biochemical. The following applies: 25°C, DCIP reduction at 600 nm.

Molecules are shown by their SMILES. Converted amounts (≈) assume the structure as drawn.

Experimental for Jurkat cells: As a control, cells were treated with DMSO alone. At t=0 and after 72 hours of culture, the number of living cells was determined using the CellTiter-Glo reagent. The inhibition of cellular proliferation is expressed as a percentage relative to DMSO-treated control wells. Presented results correspond to the mean ± SD of two independent experiments.
Jurkat cells were cultured in at 5.10+4 cells per well in flat-bottom 96-well culture dishes. […] Number of living cells was determined by quantification of adenosine triphosphate (ATP) in culture wells using the CellTiter-Glo Assay (Promega) following manufacturer's recommendations.
Experimental for recombinant human DHODH: Enzymatic assay DHODH activity was determined at 25°C following the reduction of DCIP at 600 nm (ε = 18,800 M^-1 cm^-1) on a spectrophotometer. […] The reaction medium used for this contained 50 mM Tris-HCl pH 8.0, 0.1% Triton X-100, 0.1 mM L-DHO, 0.025 mM CoQ1 and 0.06 mM DCIP. The reaction was started by addition of the enzyme.

Take `C/C(O)=C(\C#N)C(=O)Nc1ccc(C(F)(F)F)cc1` [Teriflunomide, reference compound]: in the assay on Jurkat cells, the IC50 is about 60000 nM. In addition, in the assay with measles virus, the MIC50 was 50 µM (≈ 13.5 µg/mL).

As to `CCc1cnc(-n2nc(OC(C)C)c(Oc3c(F)cccc3F)c2C)nc1` [example 8, 2-(4-(2,6-difluorophenoxy)-3-isopropoxy-5-methyl-1H-pyrazol-1-yl)-5-ethylpyrimidine], the IC50 on recombinant human DHODH was determined as 13 ± 1 nM; in the assay with measles virus (HEK-293T, read-out: IC50 on the measles virus) it was 0.66 nM. Also, the MIC50 in the assay with measles virus (24 h) lay within 0.0005 to 0.05 µM (≈ 0.000187 to 0.0187 µg/mL).
